Source: patent US4849441A, “Isoindolin-1-one derivative and antiarrhythmic agent” (Kyowa Hakko Kogyo Co., Ltd., priority 1986, dated 1989)

Tests used:
[1] = test system: chloroform-induced arrhythmia in mice; experiment: Mice chloroform-induced arrhythmia test; type: in vivo, mice of dd strain; settings: oral administration, effective if < 720 pulses/min, Probit method; for ED50: Mus musculus, po, read-out: Antiarrhythmic Activity A: chloroform induced arrhythmia in mice (ED50)
Protocol: The antiarrhythmic activity was examined by arrhythmia test induced with chloroform in mice and by arrhythmia test induced by ligation of dog coronary artery. (A) Mice chloroform-induced arrhythmia test: Using mice of dd strain, weighing 18 to 22 g and fasting and abstaining from water for 4 to 5 hours, an antiarrhythmic effect was evaluated in accordance with the method of Block [Life Science, 28, 2623 (1981)]. That is, after orally administrating each compound, the mice were put in a chloroform atmosphere and taken out after respiratory standstill. Electrocardiogram was measured by the standard limb induction method; in the case when frequent pulse exceeding 720 pulses/min. is continued for 30 seconds or longer, it was judged ineffective and in the case of a heart beat number being less than 720 pulses/min., it was judged effective. ED50 was determined by the Probit method.

[2] = test system: coronary artery ligation-induced arrhythmia in dog; experiment: Dog coronary artery ligation-induced arrhythmia test; type: in vivo, dogs; settings: Canis lupus familiaris, intravenous, 16 h after ligation, effective if 50% or more of total pulses restored to sinus rhythm, dose effective in 50% or more cases, read-out: Antiarrhythmic Activity B: coronary artery ligation induced arrhythmia in dog (MED)
Source text: The antiarrhythmic activity was examined by arrhythmia test induced with chloroform in mice and by arrhythmia test induced by ligation of dog coronary artery.
(B) Dog coronary artery ligation-induced arrhythmia test:
Using dogs weighing 7 to 12 kg, coronary artery ligation-induced arryhthmia occurred in accordance with the Harris method [Circulation, 1, 1318 (1950)]. Namely, the left fifth costa was subjected to thoraco-laparotomy.After the pericardium was incised, the left fore descending branch of the coronary artery was exfoliated around the first side branch and ligated. Sixteen hours after, a test compound was intravenously administered to dogs with multiple ventricular arrhythmic pulses being 90% or more than the total pulses. Then, electrocardiogram was recorded without anesthesia under free movement, and a case where 50% or more of the total pulses was restored to sinus rhythm was judged effective.

dd, male mice [3] = experiment: Acute toxicity test (mortality 7 days after administration); type: in vivo; settings: mortality at 7 days, minimum lethal dosage
Protocol: Groups each consisting of three dd, male mice having body weights of 20±1 g were used, and the compound of the present invention was intraperitoneally administered. Mortality 7 days after the administration was observed and the minimum lethal dosage (MLD) was determined.

dd, male mice [4] = experiment: as above; type: in vivo; settings: mortality at 7 days, minimum lethal dosage; remark: listed apart in the source

Structure (SMILES) | ED50 [1] | minimal effective dose [2] | Acute Toxicity (MLD) i.p. (dd, male mice [3]) | Acute Toxicity (MLD) p.o. (dd, male mice [4]) | Antiarrhythmic Activity A: chloroform induced arrhythmia in mice (ED50) [1]
CCN(CC)CCN1C(=O)c2ccccc2C1c1ccccc1N (stereo not drawn) [Compound 1, 3-(2-Aminophenyl)-2-(2-diethylaminoethyl)isoindolin-1-one] | 33 mg/kg | 1.25 mg/kg | > 100 mg/kg | > 300 mg/kg | –
CN(C)CCCN1C(=O)c2ccccc2C1c1ccccc1N (stereo not drawn) [Compound 2] | > 100 mg/kg | 5 mg/kg | > 100 mg/kg | > 300 mg/kg | –
CCN(CC)CCCN1C(=O)c2ccccc2C1c1ccccc1N (stereo not drawn) [Compound 3, 3-(2-Aminophenyl)-2-(3-diethylaminopropyl)isoindolin-1-one] | < 100 mg/kg | 2.5 mg/kg | > 100 mg/kg | 100 mg/kg | –
CCN(CC)CCCCN1C(=O)c2ccccc2C1c1ccccc1N (stereo not drawn) [Compound 4, 3-(2-Aminophenyl)-2-(4-diethylaminobutyl)isoindolin-1-one] | 47 mg/kg | 1.25 mg/kg | > 100 mg/kg | 200 mg/kg | –
CCCCN(CCCC)CCCN1C(=O)c2ccccc2C1c1ccccc1N (stereo not drawn) [Compound 5, 2-(3-dibutylaminopropyl)-3-(2-aminophenyl)isoindolin-1-one] | 35 mg/kg | 1.25 mg/kg | 25 mg/kg | 100 mg/kg | –
CC(C)NCCN1C(=O)c2ccccc2C1c1ccccc1N (stereo not drawn) [Compound 6, 3-(2-Aminophenyl)-2-(2-isopropylaminoethyl)isoindolin-1-one] | 36 mg/kg | 2.5 mg/kg | > 100 mg/kg | 300 mg/kg | –
CCN(CC)CCN1C(=O)c2ccccc2C1c1ccccc1NC (stereo not drawn) [Compound 7, 2-(2-Diethylaminoethyl)-3-(2-methylaminophenyl)isoindolin-1-one] | 14 mg/kg | > 2.5 mg/kg | 50 mg/kg | 50 mg/kg | –
CCN(CC)CCN1C(=O)c2ccccc2C1c1ccccc1N(C)C (stereo not drawn) [Compound 8, 2-(2-Diethylaminoethyl)-3-(2-dimethylaminophenyl)isoindolin-1-one] | 36 mg/kg | 2.5 mg/kg | 50 mg/kg | 100 mg/kg | –
CCNc1ccccc1C1c2ccccc2C(=O)N1CCN(CC)CC (stereo not drawn) [Compound 9, 2-(2-Diethylaminoethyl)-3-(2-ethylaminophenyl)isoindolin-1-one] | 63 mg/kg | > 5 mg/kg | > 100 mg/kg | 200 mg/kg | –
CCN(CC)CCN1C(=O)c2ccccc2C1c1cc(Cl)ccc1N (stereo not drawn) [Compound 11, 3-(2-Amino-5-chlorophenyl)-2-(2-diethylaminoethyl)-isoindolin-1-one] | > 100 mg/kg | 5 mg/kg | > 100 mg/kg | > 300 mg/kg | –
CCN(CC)CCN1C(=O)c2ccccc2C1c1c(C)ccc(C)c1N (stereo not drawn) [Compound 17, 3-(2-Amino-3,6-dimethylphenyl)-2-(2-diethylaminoethyl)-isoindolin-1-one] | < 25 mg/kg | – | > 100 mg/kg | 300 mg/kg | –
CCN(CC)CCN1C(=O)c2ccccc2C1c1ccc(N(C)C)cc1 (stereo not drawn) [Compound 18, 2-(2-Diethylaminoethyl)-3-(4-dimethylaminophenyl)-isoindolin-1-one] | 23 mg/kg | 2.5 mg/kg | 50 mg/kg | 100 mg/kg | –
CCN(CC)CCN1C(=O)c2ccccc2C1c1cc(C)cc(C)c1N (stereo not drawn) [Compound 26, 3-(2-Amino-3,5-dimethylphenyl)-2-(2-diethylaminoethyl)-isoindolin-1-one] | < 25 mg/kg | – | 100 mg/kg | 200 mg/kg | –
CCN(CC)CCN1C(=O)c2ccccc2C1c1cc(C#N)ccc1N (stereo not drawn) [Compound 31, 3-(2-Amino-5-cyanophenyl)-2-(2-diethylaminoethyl)-isoindolin-1-one] | 30 mg/kg | 2.5 mg/kg | – | – | 19 mg/kg
CCN(CC)CCN1C(=O)c2ccccc2C1c1cc(F)ccc1N (stereo not drawn) [Compound 32, 3-(2-Amino-5-fluorophenyl)-2-(2-diethylaminoethyl)-isoindolin-1-one] | 25 to 50 mg/kg | – | > 100 mg/kg | 300 mg/kg | –
CCN(CC)CCN1C(=O)c2ccccc2C1c1cccc(C(C)C)c1N (stereo not drawn) [Compound 33, 3-(2-Amino-3-isopropylphenyl)-2-(2-diethylaminoethyl)-isoindolin-1-one] | 14 mg/kg | – | 50 mg/kg | 100 mg/kg | –
CCN1CCCC1CN1C(=O)c2ccccc2C1c1cc(C#N)ccc1N (stereo not drawn) [Compound 35] | 50 to 100 mg/kg | – | > 100 mg/kg | > 300 mg/kg | –
CC(C)NCCN1C(=O)c2ccccc2C1c1cc(C#N)ccc1N (stereo not drawn) [Compound 36, 3-(2-Amino-5-cyanophenyl)-2-(2-isopropylaminoethyl)-isoindolin-1-one] | 50 to 100 mg/kg | – | > 100 mg/kg | > 300 mg/kg | –
CCNCCN1C(=O)c2ccccc2C1c1cc(C#N)ccc1N (stereo not drawn) [Compound 38, 3-(2-Amino-5-cyanophenyl)-2-(2-ethylaminoethyl)-isoindolin-1-one] | 50 mg/kg | 5 mg/kg | > 100 mg/kg | > 300 mg/kg | –
